According to the supplement of paper PMC10307832:

How the values were obtained:
Assay in all cases: relative viability (nuclei count vs DMSO), 5 days (fraction); higher = more cells survive
[1] = compound: CC1=CN2C(=O)C=C(N=C2C(=C1)C(C)NC3=CC=CC=C3)N4CCOCC4 [TGX 221] + O=C(c1cc(Cc2n[nH]c(=O)c3ccccc23)ccc1F)N1CCN(C(=O)C2CC2)CC1 [Olaparib] (partner 8 µM)
Procedure, shortened: (§1)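 Cells from lung cancer lines were seeded into 1536-well plates and, one day later, dosed by pin tool. Treatments were either a single drug or a fixed dose of an anchor drug with five library-drug doses (not always all listed) in √10 steps. After 5 days, nuclei were stained in a one-step fixation (final 0.05% Triton X-100, 1% formaldehyde, 1 ug/ml Hoechst) and counted on 4× images, and relative viability is the treated-to-vehicle nuclei ratio, as the median of duplicate plates.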

[2] = compound: CC1=CN2C(=O)C=C(N=C2C(=C1)C(C)NC3=CC=CC=C3)N4CCOCC4 [TGX 221] + N=C(N)NC(=N)NCCc1ccccc1 [Phenformin] (partner 250 µM)
Procedure, shortened: as §1

[3] = compound: CC1=CN2C(=O)C=C(N=C2C(=C1)C(C)NC3=CC=CC=C3)N4CCOCC4 [TGX 221] + Nc1nc2[nH]cc(CCc3ccc(C(=O)N[C@@H](CCC(=O)O)C(=O)O)cc3)c2c(=O)[nH]1 [Pemetrexed] (partner 0.2 µM)
Procedure, shortened: as §1

[4] = compound: C1=CC=C(C(=C1)C2=CC=C(C=C2)C3=CSC4=C3C(=C(C(=O)N4)C#N)O)O + O=C(c1cc(Cc2n[nH]c(=O)c3ccccc23)ccc1F)N1CCN(C(=O)C2CC2)CC1 [Olaparib] (partner 8 µM)
Procedure, shortened: as §1

Row | Cell Line | relative viability ([1]; first compound 0.08 µM) | relative viability ([1]; first compound 0.253 µM) | relative viability ([1]; first compound 0.8 µM) | relative viability ([1]; first compound 2.53 µM) | relative viability ([1]; first compound 8 µM) | relative viability ([2]; first compound 0.08 µM) | relative viability ([2]; first compound 0.253 µM) | relative viability ([2]; first compound 0.8 µM) | relative viability ([2]; first compound 2.53 µM) | relative viability ([2]; first compound 8 µM) | relative viability ([3]; first compound 0.08 µM) | relative viability ([3]; first compound 0.253 µM) | relative viability ([3]; first compound 0.8 µM) | relative viability ([3]; first compound 2.53 µM) | relative viability ([3]; first compound 8 µM) | relative viability ([4]; first compound 0.08 µM) | relative viability ([4]; first compound 0.253 µM) | relative viability ([4]; first compound 0.8 µM) | relative viability ([4]; first compound 2.53 µM) | relative viability ([4]; first compound 8 µM)
1 | HCC-44 | 1 | 1.04 | 1.05 | 1.08 | 1 | 0.157 | 0.212 | 0.212 | 0.201 | 0.177 | 0.681 | 0.646 | 0.655 | 0.643 | 0.668 | 0.979 | 1.14 | 1.01 | 1.01 | 0.887
2 | A-427 | 0.635 | 0.704 | 0.714 | 0.625 | 0.71 | 0.341 | 0.297 | 0.307 | 0.39 | 0.326 | 0.992 | 0.987 | 0.963 | 0.989 | 0.953 | 0.781 | 0.71 | 0.849 | 0.712 | 0.793
3 | NCI-H23 | 0.302 | 0.287 | 0.284 | 0.296 | 0.294 | 0.814 | 0.699 | 0.811 | 0.836 | 0.773 | 0.599 | 0.571 | 0.678 | 0.526 | 0.578 | 0.282 | 0.298 | 0.37 | 0.336 | 0.273
4 | NCI-H596 | 0.662 | 0.675 | 0.746 | 0.744 | 0.572 | 0.726 | 0.753 | 0.852 | 0.678 | 0.874 | 0.441 | 0.419 | 0.473 | 0.452 | 0.479 | 0.594 | 0.683 | 0.695 | 0.539 | 0.658
5 | NCI-H2087 | 0.646 | 0.66 | 0.501 | 0.683 | 0.598 | 0.425 | 0.455 | 0.524 | 0.472 | 0.471 | 0.745 | 0.637 | 0.582 | 0.663 | 0.672 | 0.513 | 0.587 | 0.667 | 0.811 | 0.496
6 | HCC-78 | 0.801 | 0.69 | 0.753 | 0.618 | 0.623 | 0.675 | 0.641 | 0.533 | 0.558 | 0.604 | 0.827 | 0.928 | 0.771 | 0.877 | 0.921 | 0.815 | 1.4 | 0.91 | 0.787 | 0.711
7 | NCI-H520 | 0.329 | 0.256 | 0.262 | 0.22 | 0.247 | 0.469 | 0.352 | 0.355 | 0.379 | 0.315 | 0.592 | 0.459 | 0.476 | 0.457 | 0.358 | 0.283 | 0.318 | 0.363 | 0.365 | 0.347
8 | NCI-H1734 | 0.557 | 0.554 | 0.616 | 0.576 | 0.523 | 0.379 | 0.362 | 0.395 | 0.413 | 0.406 | 0.459 | 0.399 | 0.414 | 0.436 | 0.395 | 0.601 | 0.687 | 0.678 | 0.601 | 0.529
9 | NCI-H1993 | 0.945 | 1.02 | 1.08 | 0.936 | 0.938 | 0.427 | 0.568 | 0.54 | 0.517 | 0.54 | 0.567 | 0.545 | 0.632 | 0.604 | 0.246 | 0.988 | 1.67 | 0.894 | 1.01 | 0.882
10 | HCC-827 | 0.647 | 0.55 | 0.615 | 0.526 | 0.0337 | 0.386 | 0.4 | 0.344 | 0.359 | 0.334 | 0.264 | 0.294 | 0.272 | 0.248 | 0.249 | 0.739 | 0.65 | 0.59 | 0.662 | 0.622
11 | NCI-H1437 | 0.649 | 0.589 | 0.678 | 0.603 | 0.632 | 0.315 | 0.302 | 0.252 | 0.269 | 0.335 | 0.347 | 0.294 | 0.357 | 0.329 | 0.259 | 0.616 | 0.74 | 0.668 | 0.641 | 0.606
12 | EPLC-272H | 0.786 | 0.582 | 0.845 | 0.483 | 0.504 | 0.298 | 0.275 | 0.291 | 0.269 | 0.27 | 0.392 | 0.279 | 0.353 | 0.295 | 0.303 | 0.665 | 0.753 | 0.856 | 0.917 | 0.509
13 | NCI-H2126 | 0.927 | 0.885 | 0.886 | 0.813 | 0.871 | 0.483 | 0.487 | 0.535 | 0.515 | 0.507 | 0.693 | 0.574 | 0.673 | 0.615 | 0.656 | 0.888 | 0.976 | 0.95 | 0.955 | 0.786
14 | NCI-H1666 | 0.751 | 0.748 | 0.754 | 0.727 | 0.774 | 0.556 | 0.52 | 0.598 | 0.561 | 0.529 | 0.783 | 0.852 | 0.839 | 0.802 | 0.856 | 0.731 | 0.715 | 0.767 | 0.737 | 0.747
15 | NCI-H522 | 0.563 | 0.628 | 0.729 | 0.616 | 0.645 | 0.699 | 0.581 | 0.597 | 0.669 | 0.657 | 0.811 | 1.01 | 1.13 | 1 | 0.915 | 0.567 | 0.674 | 0.778 | 0.56 | 0.645
16 | RERF-LC-KJ | 0.834 | 0.756 | 0.996 | 0.844 | 0.874 | 0.439 | 0.434 | 0.398 | 0.377 | 0.326 | 0.479 | 0.471 | 0.484 | 0.465 | 0.475 | 0.956 | 1.03 | 0.963 | 1.02 | 0.8
17 | ChaGo-K-1 | 0.399 | 0.387 | 0.374 | 0.359 | 0.426 | 0.479 | 0.512 | 0.481 | 0.456 | 0.494 | 0.264 | 0.259 | 0.236 | 0.231 | 0.254 | 0.388 | 0.443 | 0.396 | 0.439 | 0.45
